Drawing on patent US6831199B1, “Pyrimidine compounds and derivatives thereof” (G. D. Searle & Co., priority 1995, dated 2004), this text covers IC50 for ten compounds.

Assay [1] has as its target T1, Human vitronectin receptor (αvβ3) (Homo sapiens, UniProt P05106+P06756).
T1 construct: Human vitronectin receptor (αvβ3) was purified from human placenta; from tissue; host or cells: human placenta
The experiment in a line: Vitronectin adhesion assay (solid phase receptor assay, competition with biotinylated vitronectin). The format is binding. Conditions: read-out: AvB3 IC50. The method in brief:
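Purified human αvβ3 coated overnight at 4 °C in TBS with 1.0 mM Ca++, Mg++, Mn++, pH 7.4; compounds (top final 1.0×10^−4 M) competed with 1 nM biotinylated vitronectin for 2 h at room temperature. Bound ligand detected by HRP anti-biotin/OPD at A450; values normalized to no-competitor controls, four-parameter curve fit.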

Assay [2] deals with T2, Human fibrinogen receptor (αIIbβ3) (Homo sapiens, UniProt P05106+P08514).
T2 construct: Human fibrinogen receptor (αIIbβ3) was purified from outdated platelets; from tissue; host or cells: outdated human platelets
Kind of assay: Purified IIb/IIIa receptor assay (solid phase receptor assay, competition with biotinylated vitronectin). Format: binding. Conditions: read-out: IIb/IIIa IC50. Put shortly: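 Competition format: 1 nM biotinylated vitronectin plus test compound (highest 1.0×10^−4 M), 2 h at room temperature on wells coated with platelet-derived αIIbβ3. Buffer was TBS containing 1.0 mM Ca, Mg, Mn, pH 7.4. HRP anti-biotin readout at 450 nm; normalized to maximum binding, four-parameter curve fit.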

Structures can show the parent of a compound that is named as a salt.

As for `Cc1ccc(S(=O)(=O)NC(=O)Nc2cccc(C(=O)NCC(=O)NC(CC(=O)O)c3cccnc3)c2)cc1` (stereo not drawn) [Example 112, β-[[2-[[[3-[[[[(4-methylphenyl)sulfonyl]amino]carbonyl]amino]phenyl]carbonyl]amino]acetyl]amino]pyridine-3-propanoic acid, trifluoroacetate salt], the figures for the IC50 in assay [1] and in assay [2] were 284 nM and 6.34 µM, respectively.
On to `N=C(N)Nc1cccc(C(=O)NCC(=O)NC(CC(=O)O)C2CCCCC2)c1` (racemic) [Example 229, (±)β-[[2-[[[3-[(aminoiminomethyl)amino]phenyl]carbonyl]amino]acetyl]amino]cyclohexanepropanoic acid, trifluoroacetate salt, monohydrate], for which the IC50 in assay [1] was 39.1 nM; in assay [2], 10.6 µM.
On to `O=C(O)CC(NC(=O)CNC(=O)c1cccc(NC2=NCCCCC2)c1)c1cc(Cl)cc(Cl)c1` (racemic) [Example 189, (±)β-[[2-[[[3-[(3,4,5,6-tetrahydro-2H-azepin-7-yl)amino]phenyl]carbonyl]amino]acetyl]amino]-3,5-dichlorobenzenepropanoic acid, trifluoroacetate salt], for which the results for the IC50 in assay [1] and in assay [2] were 4.03 nM and 1.98 µM, respectively.
As to `CC(CC(=O)O)NC(=O)CNC(=O)c1cccc(NC(=O)NCc2cc(Cl)cc(Cl)c2)c1` (centres unmarked) [Example 274, 3-[[2-[[[3-[[[[(3,5-dichlorophenyl)methyl]amino]carbonyl]amino]phenyl]carbonyl]amino]acetyl]amino]butanoic acid], the IC50 was determined as 31.1 nM in assay [1] and 21.2 µM in assay [2].
For `N=C(N)Nc1cccc(C(=O)NCC(=O)NC(CC(=O)O)c2cc(Br)cc(I)c2)c1` (racemic) [Example 219, (±)β-[[2-[[[3-[(aminoiminomethyl)amino]phenyl]carbonyl]amino]acetyl]amino]-3-bromo-5-iodobenzenepropanoic acid trifluoroacetate salt] the same measures were 2.29 nM and 0.253 µM.
For `N=C(N)Nc1cccc(C(=O)NCC(=O)NC(CC(=O)O)c2ccn[nH]2)c1` (stereo not drawn) [Example 252, β-[[2-[[[3-[(aminoiminomethyl)amino]phenyl]carbonyl]amino]acetyl]amino]-1H-pyrazole-3-propanoic acid, trifluoroacetate salt], the IC50 came to 1.52 nM in assay [1] and 0.213 µM in assay [2].
On to `N=C(Nc1cccc(C(=O)NCC(=O)NC(CC(=O)O)c2cc(Cl)cc(Cl)c2)c1)N1CCCCC1` (stereo not drawn) [Example 285, 3,5-dichloro-β-[[2-[[[3-[[imino(1-piperidinyl)methyl]amino]phenyl]carbonyl]amino]acetyl]amino]benzenepropanoic acid, trifluoroacetate salt], for which the IC50 in assay [1] stood at 229 nM; in assay [2], 3.17 µM.
On to `O=C(O)CC(NC(=O)CNC(=O)c1cccc(Nc2ncc(-c3ccccc3)[nH]2)c1)c1cccnc1` (stereo not drawn) [Example 287, β-[[2-[[[3-[[5-phenyl-1H-imidazol-2-yl)amino]phenyl]carbonylamino]acetyl]amino]pyridine-3-propanoic acid, trifluoroacetate salt], for which the IC50 was found to be 49.7 nM in assay [1] and 0.0411 µM in assay [2].
As to `CCOC(=O)CCNC(=O)CNC(=O)c1cccc(NC(=N)N)c1` [Example 96, N-[2-[[[3-[(aminoiminomethyl)amino]phenyl]carbonyl]amino]acetyl]-β-alanine, ethyl ester], the results for the IC50 in assay [1] and in assay [2] were 1810 nM and 5.4 µM, respectively.
With `N=C(N)Nc1cccc(C(=O)NCC(=O)NC(CC(=O)O)c2ccccc2OCC(=O)O)c1` (stereo not drawn) [Example 255, β-[[2-[[[3-[(aminoiminomethyl)amino]phenyl]carbonyl]amino]acetyl]amino]-2(carboxymethoxy)benzenepropanoic acid, trifluoroacetate salt], the IC50 amounted to 28.4 nM in assay [1] and 6.05 µM in assay [2].
